{
  "source": "patent US5194424A",
  "about": "“C^63 -amide derivatives of 34-de(acetylglucosaminyl)-34-deoxy-teicoplanin and their use as medicaments against bacteria resistant to glycopeptide antibiotics” (Gruppo Lepetit SpA, priority 1988, dated 1993)",
  "key": {"[1]": {"test_system": "Staphylococcus aureus TOUR", "assay": "In vitro MIC, standard agar-dilution test in microtiter", "type": "cell-based", "conditions": "ISOSENSITEST broth, inoculum about 10^4 CFU/ml, 18-24 h at 37° C.", "procedure": "(§1) The antibacterial activity, of the compounds of the invention is determined in vitro by means of standard agar-dilution tests in microtiter. ISOSENSITEST broth (Oxoid) and TODD-HEWITT broth (Difco) are used for growing Staphylococci and Streptococci. respectively. Broth cultures are diluted so that the final inoculum is about 10^4 forming units/ml (CFU/ml)."}, "[2]": {"test_system": "Staphylococcus epidermidis ATCC 12228", "assay": "In vitro MIC, standard agar-dilution test in microtiter", "type": "cell-based", "conditions": "ISOSENSITEST broth, inoculum about 10^4 CFU/ml, 18-24 h at 37° C.", "procedure": "as §1"}, "[3]": {"test_system": "Streptococcus faecalis ATCC 7080", "assay": "In vitro MIC, standard agar-dilution test in microtiter", "type": "cell-based", "conditions": "TODD-HEWITT broth, inoculum about 10^4 CFU/ml, 18-24 h at 37° C.", "procedure": "as §1"}, "[4]": {"test_system": "Streptococcus pyogenes C 203", "assay": "In vitro MIC, standard agar-dilution test in microtiter", "type": "cell-based", "conditions": "TODD-HEWITT broth, inoculum about 10^4 CFU/ml, 18-24 h at 37° C.", "procedure": "as §1"}, "[5]": {"test_system": "Staphylococcus haemolyticus L 602", "assay": "In vitro MIC, standard agar-dilution test in microtiter", "type": "cell-based", "conditions": "ISOSENSITEST broth, inoculum about 10^4 CFU/ml, 18-24 h at 37° C.", "procedure": "as §1, with “TODD-[…]” for “TODD-HEWITT”"}, "[6]": {"test_system": "Streptococcus pneumoniae UC 41", "assay": "In vitro MIC, standard agar-dilution test in microtiter", "type": "cell-based", "conditions": "TODD-HEWITT broth, inoculum about 10^4 CFU/ml, 18-24 h at 37° C.", "procedure": "as §1, with “TODD-[…]” for “TODD-HEWITT”"}, "[7]": {"test_system": "glycopeptide-resistant E. faecalis", "assay": "In vitro MIC against glycopeptide-resistant Enterococci", "type": "cell-based", "procedure": "(§2) In particular, the activity of the compounds of the invention was confirmed through in vitro experiments carried out with clinical isolates resistant to glycopeptide antibiotics such as with Enterococci faecalis, Enterococci faecium, as shown in Table IIa.\n(§3) The antibacterial activity is determined in vitro by means of standard\n(§4) agardilution tests in microtiter. ISOSENSITEST broth (Oxoid) is used for\n(§5) growing Enterococci. Broth cultures are diluted so that the final inoculu\n(§6) is about 5 × 10^5 forming units/ml (CFU/ml)."}, "[8]": {"test_system": "glycopeptide-resistant E. faecium", "assay": "In vitro MIC against glycopeptide-resistant Enterococci", "type": "cell-based", "procedure": "as §2, §3, §4, §5, §6"}, "[9]": {"test_system": "clinical isolates of Streptococcus pyogenes", "assay": "MIC against clinical isolates of Streptococcus pyogenes", "type": "cell-based", "procedure": "as §1"}, "[10]": {"test_system": "Streptococcus pyogenes C 203", "conditions": "comparison statement for teicoplanin and prior-art compounds; never lower than; cited from earlier work"}, "[11]": {"conditions": "E. faecium L 1666, ISOSENSITEST broth, inoculum about 5 × 10^5 CFU/ml"}},
  "data": [
    {"molecule": "CC(C)CCCCCCC(=O)N[C@H]1[C@H](Oc2c3cc4cc2Oc2ccc(cc2Cl)CC2NC(=O)C(NC(=O)C4NC(=O)C4NC(=O)C(Cc5ccc(c(Cl)c5)O3)NC(=O)C(N)c3ccc(O)c(c3)Oc3cc(O)cc4c3)c3ccc(O)c(c3)-c3c(O[C@H]4O[C@H](CO)[C@@H](O)[C@H](O)[C@@H]4O)cc(O)cc3C(C(=O)NCCCN(CCCN)CCCN)NC2=O)O[C@H](CO)[C@@H](O)[C@@H]1O", "note": "(stereo partly shown) [Compound 33]", "values": [
      {"measurement": "MIC", "setting": "[1]", "value": 0.12, "unit": "microgram/ml"},
      {"measurement": "MIC", "setting": "[2]", "value": 0.004, "unit": "microgram/ml"},
      {"measurement": "MIC", "setting": "[3]", "value": 0.12, "unit": "microgram/ml"},
      {"measurement": "MIC", "setting": "[4]", "value": 0.004, "unit": "microgram/ml"},
      {"measurement": "MIC", "setting": "[5]", "value": 0.032, "unit": "microgram/ml"},
      {"measurement": "MIC", "setting": "[6]", "value": 0.12, "unit": "microgram/ml"}
    ]},
    {"molecule": "CN[C@H](CC(C)C)C(=O)N[C@H]1C(=O)N[C@@H](CC(N)=O)C(=O)N[C@H]2C(=O)N[C@H]3C(=O)N[C@H](C(=O)N[C@H](C(=O)O)c4cc(O)cc(O)c4-c4cc3ccc4O)[C@H](O)c3ccc(c(Cl)c3)Oc3cc2cc(c3O[C@@H]2O[C@H](CO)[C@@H](O)[C@H](O)[C@H]2O[C@H]2C[C@](C)(N)[C@H](O)[C@H](C)O2)Oc2ccc(cc2Cl)[C@H]1O", "note": "[VANCO, vancomycin]", "values": [
      {"measurement": "MIC", "setting": "[7]; Enterococcus faecalis", "value": "> 128", "unit": "µg/mL"},
      {"measurement": "MIC", "setting": "[7]; Enterococcus faecalis, NCTC12201", "value": "> 128", "unit": "µg/mL"},
      {"measurement": "MIC", "setting": "[7]; Enterococcus faecalis, NCTC12202", "value": "> 128", "unit": "µg/mL"},
      {"measurement": "MIC", "setting": "[8]; [11]", "value": "> 128", "unit": "µg/mL"},
      {"measurement": "MIC", "setting": "[8]; Enterococcus faecium", "value": "> 128", "unit": "µg/mL"},
      {"measurement": "MIC", "setting": "[8]; Enterococcus faecium, NCTC12203", "value": "> 128", "unit": "µg/mL"}
    ]},
    {"molecule": "teicoplanin", "values": [
      {"measurement": "MIC", "setting": "[9]; S. pyogenes strain L-33", "value": 0.063, "unit": "microgram/ml"},
      {"measurement": "MIC", "setting": "[9]; S. pyogenes strain L-317", "value": 0.063, "unit": "microgram/ml"},
      {"measurement": "MIC", "setting": "[9]; S. pyogenes strain L-800", "value": 0.063, "unit": "microgram/ml"},
      {"measurement": "MIC", "setting": "[9]; S. pyogenes strain L-801", "value": 0.063, "unit": "microgram/ml"},
      {"measurement": "MIC", "setting": "[9]; S. pyogenes strain L-802", "value": 0.063, "unit": "microgram/ml"},
      {"measurement": "MIC", "setting": "[9]; S. pyogenes strain L-803", "value": 0.063, "unit": "microgram/ml"},
      {"measurement": "MIC", "setting": "[9]; S. pyogenes strain L-804", "value": 0.063, "unit": "microgram/ml"},
      {"measurement": "MIC", "setting": "[9]; S. pyogenes strain L-805", "value": 0.063, "unit": "microgram/ml"},
      {"measurement": "MIC", "setting": "[9]; S. pyogenes strain L-1303", "value": 0.063, "unit": "microgram/ml"},
      {"measurement": "MIC", "setting": "[9]; S. pyogenes strain L-1304", "value": 0.125, "unit": "microgram/ml"},
      {"measurement": "MIC", "setting": "[9]; S. pyogenes strain L-1306", "value": 0.125, "unit": "microgram/ml"},
      {"measurement": "MIC", "setting": "[9]; S. pyogenes strain L-1315", "value": 0.063, "unit": "microgram/ml"},
      {"measurement": "MIC", "setting": "[9]; S. pyogenes strain L-1316", "value": 0.063, "unit": "microgram/ml"},
      {"measurement": "MIC", "setting": "[9]; S. pyogenes strain L-1318", "value": 0.063, "unit": "microgram/ml"},
      {"measurement": "MIC", "setting": "[9]; S. pyogenes strain L-1319", "value": 0.063, "unit": "microgram/ml"},
      {"measurement": "MIC", "setting": "[7]; E. faecalis L 560, ISOSENSITEST broth, inoculum about 5 × 10^5 CFU/ml", "value": "> 128", "unit": "µg/mL"},
      {"measurement": "MIC", "setting": "[7]; E. faecalis NCTC 12201, ISOSENSITEST broth, inoculum about 5 × 10^5 CFU/ml", "value": 128, "unit": "µg/mL"},
      {"measurement": "MIC", "setting": "[7]; E. faecalis NCTC 12202, ISOSENSITEST broth, inoculum about 5 × 10^5 CFU/ml", "value": 128, "unit": "µg/mL"},
      {"measurement": "MIC", "setting": "[8]; [11]", "value": "> 128", "unit": "µg/mL"},
      {"measurement": "MIC", "setting": "[8]; E. faecium NCTC 12203, ISOSENSITEST broth, inoculum about 5 × 10^5 CFU/ml", "value": 64, "unit": "µg/mL"},
      {"measurement": "MIC", "setting": "[8]; E. faecium NTCT 12204, ISOSENSITEST broth, inoculum about 5 × 10^5 CFU/ml", "value": 64, "unit": "µg/mL"},
      {"measurement": "MIC against Streptococcus pyogenes", "setting": "[10]", "value": "≥ 0.06", "unit": "microgram/ml"}
    ]},
    {"molecule": "CC(C)CCCCCCC(=O)N[C@H]1[C@H](Oc2c3cc4cc2Oc2ccc(cc2Cl)CC2NC(=O)C(NC(=O)C4NC(=O)C4NC(=O)C(Cc5ccc(c(Cl)c5)O3)NC(=O)C(N)c3ccc(O)c(c3)Oc3cc(O)cc4c3)c3ccc(O)c(c3)-c3c(O[C@H]4O[C@H](CO)[C@@H](O)[C@H](O)[C@@H]4O)cc(O)cc3C(C(=O)NCCCN(C)C)NC2=O)O[C@H](CO)[C@@H](O)[C@@H]1O", "note": "(stereo partly shown) [Compound 6]", "values": [
      {"measurement": "MIC", "setting": "[1]", "value": 2, "unit": "microgram/ml"},
      {"measurement": "MIC", "setting": "[2]", "value": 0.12, "unit": "microgram/ml"},
      {"measurement": "MIC", "setting": "[3]", "value": 2, "unit": "microgram/ml"},
      {"measurement": "MIC", "setting": "[4]", "value": 0.06, "unit": "microgram/ml"},
      {"measurement": "MIC", "setting": "[5]", "value": 1, "unit": "microgram/ml"},
      {"measurement": "MIC", "setting": "[6]", "value": 0.25, "unit": "microgram/ml"}
    ]},
    {"molecule": "CC(C)CCCCCCC(=O)N[C@H]1[C@H](Oc2c3cc4cc2Oc2ccc(cc2Cl)CC2NC(=O)C(NC(=O)C4NC(=O)C4NC(=O)C(Cc5ccc(c(Cl)c5)O3)NC(=O)C(N)c3ccc(O)c(c3)Oc3cc(O)cc4c3)c3ccc(O)c(c3)-c3c(O[C@H]4O[C@H](CO)[C@@H](O)[C@H](O)[C@@H]4O)cc(O)cc3C(C(=O)NCCCNCCO)NC2=O)O[C@H](CO)[C@@H](O)[C@@H]1O", "note": "(stereo partly shown) [Compound 7]", "values": [
      {"measurement": "MIC", "setting": "[1]", "value": 1, "unit": "microgram/ml"},
      {"measurement": "MIC", "setting": "[2]", "value": 0.06, "unit": "microgram/ml"},
      {"measurement": "MIC", "setting": "[3]", "value": 2, "unit": "microgram/ml"},
      {"measurement": "MIC", "setting": "[4]", "value": 0.032, "unit": "microgram/ml"},
      {"measurement": "MIC", "setting": "[5]", "value": 1, "unit": "microgram/ml"},
      {"measurement": "MIC", "setting": "[6]", "value": 0.25, "unit": "microgram/ml"}
    ]}
  ]
}
